# Results taken from patent US20040229284A1, “Multiplex analysis of proteins” (The Regents of the University of California, priority 2003, published 2004).
# Experiments:
# Type in all cases: cell-based
# [1] = tested on: EGFR; experiment: Microsphere (Luminex) detection of tyrosine-phosphorylated EGFR in lysates of activated A431 cells; settings: for detection of tyrosine phosphorylated EGFR in lysates of activated cells: anti-EGFR coated microspheres, 4G10-biotin, streptavidin-R-phycoerythrin
# Description: A431 cells were grown to 80-90% confluency in T75 flasks. Cells were washed once with fresh media (37° C.). For treatment, sodium pervanadate was prepared as described above and diluted into DMEM to 1 mM final concentration. Two ml of 1 mM sodium pervanadate containing media, prewarmed to 37° C., was added per T75 flask and the cell monolayer was covered with it. Cells were incubated at 37° C. for 5 min. Activated cells were lysed and processed as described below.
# For pathway specific activation of A431 cells, which overexpress the epidermal growth factor receptor (EGFR), the cells were treated with epidermal growth factor (EGF). Cells were grown to about 80-90% confluency in a T75 flask. The optimal concentration of EGF for activation of the EGFR pathway in A431 cells was determined to be 100 μM. EGF was diluted in DMEM containing 10% serum. Two ml of the diluted EGF (100 μM) was layered on top of the cell monolayer. Cells were incubated at 37° C. for 15 min for activation. Activated cells were lysed and processed as described below.
# A431 cells were lysed by adding 1 ml of 1× lysis buffer (1% NP-40 and protease inhibitor cocktail in PBS), pre-chilled on ice, per T75 flask. Cells were removed by scraping with a cell scraper. Lysate was vortexed immediately after addition of lysis buffer and incubated on ice for 15 min. While incubating on ice, it was mixed by vortexing every 5 min. […]
# (§1) After incubation with the lysate, liquid was drained from the bottom of plate, under vacuum, on a suction apparatus (Millipore Corporation) designed to fit these plates. […] Washed microspheres were resuspended in 100 μl of wash buffer per well and analyzed in the Luminex-100™ instrument, according to the manufacturer's instructions.
# Later experiments focused on analyzing multiple proteins in another pathway simultaneously, as described below. (It will be evident that multiple proteins in the EGFR pathway or any other pathways or combinations thereof could similarly be analyzed simultaneously.)
# [2] = tested on: Lck; experiment: Five-plex microsphere (Luminex) assay of tyrosine phosphorylation in activated Jurkat T-cells: Lck; settings: lysate from pervanadate treated Jurkat cells, 37° C., 5 min; FIG. 2
# Description: (§2) Jurkat cells were resuspended to a density of 1×10^8 cells/ml in PBS. Cells were pre-warmed to 37° C. for 15 min. To each milliliter of cell suspension, 40 μl of sodium pervanadate was added. Cells were mixed and immediately incubated at 37° C. for 5 min. Activated cells were lysed, and cell lysates were processed as described below.
# (§3) For pathway specific activation, Jurkat cells were treated with anti-CD3-receptor monoclonal antibody (UCHT1) (Becton Dickenson, San Diego, Calif.). Cells were resuspended in PBS at a density of 1×10^8/ml and prewarmed to 37° C. Anti-CD3 antibody was added to a final concentration of 5 μg/ml. Cells were mixed and incubated at 37° C. for various times ranging from 5 sec to 10 min. Optimal phosphorylation of most tyrosine kinases and their substrates in the T-cell receptor pathway occurred in 5 min.
# (§4) Jurkat cells were lysed by adding a volume of 2× lysis buffer (2% NP-40 and protease inhibitor cocktail (both from Roche Diagnostics, Mannheim, Germany) in PBS), pre-chilled on ice, equal to the volume of the resuspended cells. […]
# as §1, with “instructions. […]” for “instructions.”
# [3] = tested on: Zap70; experiment: Five-plex microsphere (Luminex) assay of tyrosine phosphorylation in activated Jurkat T-cells: Zap70; settings: lysate from pervanadate treated Jurkat cells, 37° C., 5 min; FIG. 2
# Description: as §2, §3, §4
# as §1, with “instructions. […]” for “instructions.”
# [4] = tested on: LAT; experiment: Five-plex microsphere (Luminex) assay of tyrosine phosphorylation in activated Jurkat T-cells: LAT; settings: lysate from pervanadate treated Jurkat cells, 37° C., 5 min; FIG. 2
# Description: as §2, §3, §4
# as §1, with “instructions. […]” for “instructions.”
# [5] = tested on: Lck; experiment: Immunoprecipitation and Western analysis with biotinylated 4G10, Jurkat lysates: Lck; settings: Jurkat cell lysates, treated vs untreated; FIG. 3
# Description: (§5) To confirm that microspheres coated with antibodies to Lck, Zap70 and LAT captured predominantly specific proteins in cell lysates, immunoprecipitation was performed with these antibodies. Cell lysates (1×10^8 cells in 1 ml) were incubated with 2.5 μg of each antibody for 1 hr. The immune complexes were captured with Protein G conjugated sepharose (Sigma Chemicals, St. Louis, Mo.) and resolved by standard polyacrylamide gel electrophoresis (PAGE). Resolved proteins were transferred to PVDF membrane (BiORad, Hercules, Calif.) and probed with biotinylated 4G10 (1:2000 dilution in 5% non-fat powdered milk in PBS). Phosphorylated bands were finally detected by ABC Detection Reagent (Vector Laboratories, Burlingame, Calif.) and Chemiluminescent Substrate (Pierce). […] These phosphorylated proteins predominated in their respective immunoprecipitates.
# [6] = tested on: Zap70; experiment: Immunoprecipitation and Western analysis with biotinylated 4G10, Jurkat lysates: Zap70; settings: Jurkat cell lysates, treated vs untreated; FIG. 3
# Description: as §5
# [7] = tested on: LAT; experiment: Immunoprecipitation and Western analysis with biotinylated 4G10, Jurkat lysates: LAT; settings: Jurkat cell lysates, treated vs untreated; FIG. 3
# Description: as §5
substance,measurement,setting,value
epidermal growth factor [EGF],optimal concentration of EGF for activation of the EGFR pathway,"[1]; 37° C., 15 min",100 µM
same,detection of tyrosine phosphorylated EGFR in lysates of activated cells,[1],could be detected
sodium pervanadate,detection of tyrosine phosphorylated EGFR in lysates of activated cells,[1],could be detected
same,"fluorescent signal from streptavidin-phycoerythrin, anti-Lck coated microspheres",[2],strong fluorescent signal
same,"fluorescent signal from streptavidin-phycoerythrin, anti-Zap70 coated microspheres",[3],strong fluorescent signal
same,"fluorescent signal from streptavidin-phycoerythrin, anti-LAT coated microspheres",[4],strong fluorescent signal
same,phosphorylated band of Lck in immunoprecipitate,[5],detected only in lysates from cells treated with sodium pervanadate
same,phosphorylated band of Zap70 in immunoprecipitate,[6],detected only in lysates from cells treated with sodium pervanadate
same,phosphorylated band of LAT in immunoprecipitate,[7],detected only in lysates from cells treated with sodium pervanadate
